{"source": "patent US20080206819A1", "about": "“Intensified Perfusion Production Method” (priority 2006, published 2008)", "key": {"[1]": {"tested_on": "Chinese hamster ovary (CHO) cell line", "assay": "Cell viability, traditional perfusion vs. RaMP (trypan blue staining)", "type": "cell-based", "method": "The production cell line used for all experiments is a CHO (Chinese Hamster Ovary) cell-derived cell line transfected with the desired construct to produce a recombinant IgG1 protein. For all of the experiments, the cell line was grown in the RBM12.1 media under selective pressure (100 μg/ml Hygromycin B and 500 nM methotrexate). The cells were seeded in at a density of 4×10^5 to 1×10^6 cells per milliliter, depending on bioreactor size. pH was kept at 7.1±0.05 and temperature was kept at 37° C.±0.5. The perfusion rate for both traditional perfusion and the methods of the invention (RaMP) was 1.0 to 2.0 volumes/day. The cell retention devices used were the hollow fiber system and/or the cell settler system. […] The cell settler system (retention by gravity) seem to overcome this problem. Sodium butyrate was introduced into the bioreactor after the cells reached the desired cell density (around 20 million cells/ml). Once sodium butyrate was introduced into the perfusion system, the cells were kept at that sodium butyrate condition until the next higher dose. This gradual ramping of sodium butyrate concentration was continued until the desired final concentration of sodium butyrate was reached. Once the desired sodium butyrate concentration is reached, the cells are grown in media in media containing the desired sodium butyrate concentration for the rest of the production run.\nThe mammalian host cell line used is a Chinese hamster ovary (CHO) cell line. This cell line has been transfected with the light and heavy chains of a chimeric IgG1 monoclonal antibody. The cells were grown in RBM12.1 medium under selective pressure (100 μg/ml Hygromycin B and 500 nM methotrexate (MTX). The medium used for this example contained the components in Table 1. Additional factors such as 10 μg/ml recombinant human insulin and 0.1% F68 are also added to the medium.\nDuring the growth period, the cultures were controlled at pH 7.1±0.05 by the use of CO2 gas (acid) and/or Na2CO3 (base). Temperature was controlled at 37°±0.5 Celsius. Oxygen level was maintained at about 100% air saturation. For the initial growth period, CO2 level was maintained at 5%. When the cell density reached […] cells/ml, CO2 gas to the culture was turned off. The osmolality of the culture was maintained between 325 to 400 mOsm with minimal osmolality drift.\nIn a typical production schedule, 5×10^5 to 1×10^6 cells were inoculated into the cell culture bioreactor. 1 to 1.5 volumes of media was perfused daily. Cell density and viability was monitored by pulling a sample from the bioreactor and counted using trypan blue staining for live/dead cells.\nTen days after inoculation, the production period was started with the gradual addition of sodium butyrate (Na butyrate) into the RaMP cultures. 1.5 volume of RBM12.1 medium with 1 mM Na butyrate was perfused into the biorector on day 1 of the production period. This concentration of Na butyrate was kept in the bioreactor using the RaMP method for the duration of the production period. For cells in the traditional perfusion method, RBM12.1 media without Na butyrate was perfused into the bioreactor at the same perfusion rate as used in the RaMP method. Cell viability was monitored daily."}, "[2]": {"tested_on": "CHO (Chinese Hamster Ovary) cell-derived cell line", "assay": "Cell viability during production period, Example 4 (RaMP)", "type": "cell-based", "conditions": "RaMP: 0.5 mM sodium butyrate day 10, 1.0 mM day 14; entire production period", "method": "Cells were seeded at 5×10^5 cells/ml and were allowed to grow for 9 days in the bioreactor before induction with butyrate for the RaMP method. Conditions for this growth period are similar to those described in Example 1 above. On day 10, media containing 0.5 mM sodium butyrate was perfused into the bioreactor. On day 14, media containing 1.0 mM sodium butyrate was perfused into the bioreactor.\nCell viability was monitored daily throughout the production period. Over the entire production period, cell viability remained high and never dropped below 85% for both traditional perfusion and RaMP methods."}, "[3]": {"tested_on": "CHO (Chinese Hamster Ovary) cell-derived cell line", "assay": "Cell viability and cell density, Example 5 (RaMP)", "type": "cell-based", "method": "(§1) Cells were seeded at 5×10^5 cells/ml and were allowed to grow in the bioreactor for 6 days before the first harvest of recombinant protein on day 7. Conditions for this growth period are similar to those described in Example 1 above. Cells were grown in RBM12.1 media with a perfusion rate of 1 to 1.5 v/day. 1 mM sodium butyrate (final concentration) was added to perfusion medium and was perfused into the bioreactor on day 8. […] 2 mM sodium butyrate (final concentration) was added to the perfusion media and was perfused into the bioreactor on day 11. Cell viability was monitored daily by pulling samples from the bioreactor and trypan blue live/dead staining. Over the production run, the cell density reached upwards of 4.5×10^7 cells/ml. Using the RaMP method, the cell viability remained above 85% viable cells even with the sustained concentration of 2 mM sodium butyrate in the media. The average daily recombinant protein production reached over 0.6 g/L/day."}, "[4]": {"tested_on": "CHO (Chinese Hamster Ovary) cell-derived cell line", "assay": "Average daily recombinant protein production using RaMP, Example 5", "type": "cell-based", "method": "Samples of harvested media were taken from the daily harvest and frozen. At the end of the production run, the frozen daily samples were tested using an anti-IgG (recognizing only intact IgG) ELISA assay in order to determine the protein yields. FIG. 1 is a graphical representation of the average daily yield of recombinant protein from both traditional perfusion and RaMP methods.\nas §1"}, "[5]": {"tested_on": "CHO (Chinese Hamster Ovary) cell-derived cell line", "assay": "Average daily specific productivity: perfusion, fed-batch and RaMP", "type": "cell-based", "conditions": "for Average Daily Specific Productivity: 10 day production run", "text": "Average daily specific productivity was compared using traditional perfusion, fed-batch with sodium butyrate induction and RaMP processes. The same production cell line was used for all three methods. Culture conditions for all three methods were similar to those described in Example 1 above. Cells were inoculated at 5×10^5 cells/ml and were allowed to grow to the desired concentration before induction with sodium butyrate. Fed-batch culture was induced with sodium butyrate as a bolus addition. Fed-batch specific productivity calculations were normalized and averaged for new protein production per day. Average daily specific productivity was calculated using production yields from a 10 day production run. Maximal sodium butyrate concentration was 2 mM for both fed-batch and RaMP processes. Average daily yields using the RaMP method was approximately 6 times more than fed-batch or traditional perfusion methods."}, "recombinant CHO cells": {"tested_on": "recombinant CHO cells", "conditions": "sodium butyrate added in fluidized bed bioreactor; cited from earlier work"}}}
{"smiles": "CCCC(=O)[O-].[Na+]", "note": "[sodium butyrate]", "values": [{"measurement": "% viable cells (RaMP)", "setting": "[1]; 1 mM Na butyrate perfused from start of production period, day 10", "result": 97, "unit": "%"}, {"measurement": "% viable cells (RaMP)", "setting": "[1]; 1 mM Na butyrate, day 11", "result": 97.6, "unit": "%"}, {"measurement": "% viable cells (RaMP)", "setting": "[1]; 1 mM Na butyrate, day 12", "result": 96.4, "unit": "%"}, {"measurement": "% viable cells (RaMP)", "setting": "[1]; 1 mM Na butyrate, day 13", "result": 97.1, "unit": "%"}, {"measurement": "% viable cells (RaMP)", "setting": "[1]; 1 mM Na butyrate, day 14", "result": 95.7, "unit": "%"}, {"measurement": "% viable cells (RaMP)", "setting": "[1]; 1 mM Na butyrate, day 15", "result": 96.1, "unit": "%"}, {"measurement": "% viable cells (RaMP)", "setting": "[1]; 1 mM Na butyrate, day 16", "result": 97.2, "unit": "%"}, {"measurement": "% viable cells (RaMP)", "setting": "[1]; 1 mM Na butyrate, day 17", "result": 96.4, "unit": "%"}, {"measurement": "% viable cells (RaMP)", "setting": "[1]; 1 mM Na butyrate, day 18", "result": 97, "unit": "%"}, {"measurement": "% viable cells (RaMP)", "setting": "[1]; 1 mM Na butyrate, day 19", "result": 96.9, "unit": "%"}, {"measurement": "% viable cells (RaMP)", "setting": "[1]; 1 mM Na butyrate, day 20", "result": 95.8, "unit": "%"}, {"measurement": "cell viability", "setting": "[1]; RaMP method, 1 mM Na butyrate, production period", "result": "sustained high cell viability"}, {"measurement": "cell viability", "setting": "[2]", "result": "≥ 85", "unit": "%"}, {"measurement": "cell density", "setting": "[3]; RaMP, 1 mM then 2 mM sodium butyrate, over the production run", "result": "> 4.5×10^7 cells/ml"}, {"measurement": "cell viability", "setting": "[3]; after 1 mM sodium butyrate perfused on day 8", "result": "≥ 85", "unit": "%"}, {"measurement": "cell viability", "setting": "[3]; sustained concentration of 2 mM sodium butyrate in the media (from day 11)", "result": "above 85%"}, {"measurement": "average daily recombinant protein production", "setting": "[4]; 1 mM then 2 mM sodium butyrate, reached", "result": "over 0.6 g/L/day"}, {"measurement": "Average total production", "setting": "[4]; sodium butyrate 1 mM, day 8 in culture", "result": 102, "unit": "mg/L/day"}, {"measurement": "Average total production", "setting": "[4]; sodium butyrate 1 mM, day 9 in culture", "result": 159, "unit": "mg/L/day"}, {"measurement": "Average total production", "setting": "[4]; sodium butyrate 1 mM, day 10 in culture", "result": 343, "unit": "mg/L/day"}, {"measurement": "Average total production", "setting": "[4]; sodium butyrate 2 mM, day 11 in culture", "result": 381, "unit": "mg/L/day"}, {"measurement": "Average total production", "setting": "[4]; sodium butyrate 2 mM, day 12 in culture", "result": 332, "unit": "mg/L/day"}, {"measurement": "Average total production", "setting": "[4]; sodium butyrate 2 mM, day 13 in culture", "result": 590, "unit": "mg/L/day"}, {"measurement": "Average total production", "setting": "[4]; sodium butyrate 2 mM, day 14 in culture", "result": 498, "unit": "mg/L/day"}, {"measurement": "Average total production", "setting": "[4]; sodium butyrate 2 mM, day 15 in culture", "result": 577, "unit": "mg/L/day"}, {"measurement": "Average total production", "setting": "[4]; sodium butyrate 2 mM, day 16 in culture", "result": 549, "unit": "mg/L/day"}, {"measurement": "Average total production", "setting": "[4]; sodium butyrate 2 mM, day 17 in culture", "result": 526, "unit": "mg/L/day"}, {"measurement": "Average total production", "setting": "[4]; sodium butyrate 2 mM, day 18 in culture", "result": 684, "unit": "mg/L/day"}, {"measurement": "Average Daily Specific Productivity", "setting": "[5]; Fed-batch, sodium butyrate bolus addition, maximal 2 mM", "result": "0.10 g/L/day ± 0.03"}, {"measurement": "Average Daily Specific Productivity", "setting": "[5]; RaMP, maximal sodium butyrate 2 mM", "result": "0.64 g/L/day ± 0.07"}, {"measurement": "Average daily yields using RaMP relative to fed-batch or traditional perfusion methods", "setting": "[5]; maximal sodium butyrate 2 mM", "result": "approximately 6 times"}, {"measurement": "cell growth and cell concentration", "setting": "recombinant CHO cells", "result": "the cells stopped growing and cell concentration declined"}]}
